According to patent US7906491B2 (Univisitair Medisch Centrum Utrecht, priority 2002, dated 2011):

Experiments:
Rap1 = Rap1 activation assay in Ovcar3 cells; type: cell-based
Protocol: A: 8-pCPT-2′-O-Me-cAMP stimulates cell adhesion. Upper panel: quantification of Ovcar3 cells adhering to fibronectin after treatment with increasing concentrations of 8-pCPT-2′-O-Me-cAMP. Lower panel: Ovcar3 cells were treated with increasing concentrations of 8-pCPT-2′-O-Me-cAMP for 15 min, cells were lysed and analyzed for activation of Rap1 (upper blot) and CREB (lower blot). Total Rap1 levels are shown (middle blot). B: 8-pCPT-2′-O-Me-cAMP increases the rate of cell adhesion. Upper panel: quantification of Ovcar3 cells adhering to fibronectin at various time points. Lower panel: cells were treated with 60 μM 8-pCPT-2′-O-Me-cAMP for the indicated times. Cell lysates were analyzed for activation of Rap1 (upper blot) and CREB (lower blot). Total levels of Rap1 in cell lysates are shown (middle blot). C: Ovcar3 cells were either pre-incubated at 37° C. for 30 min with the PKA inhibitor H-89 (10 μM) 30 min prior to seeding onto the wells (‘Short’) or H-89 was added 30 min prior to trypsinization and during the recovery period (‘Long’) and seeded onto wells in the absence or presence of 8-pCPT-2′-O-Me-cAMP (100 μM). Cells were allowed to adhere for 1 h. D, cAMP-induced adhesion to fibronectin is blocked by inhibitors of Rap1. Left panel: Ovcar3 cells were transiently transfected with either mock DNA, increasing concentrations of HA-Rap1GAP II (0.5, 1, 2 or 6 μg, respectively), HA-Rap1GAPI (6 μg) or HA-RBD of RalGDS (6 μg), respectively. Cells were treated with 8-Br-cAMP or 8-pCPT-2′-O-Me-cAMP and adhesion to fibronectin was determined. Right upper panel: luciferase counts of total input cells per well in the above experiment are shown. Right lower panel: expression of HA-Rap1GAPs in the above experiment is shown.
Rap activation assays were performed as described previously (16-18). […] Proteins were eluted with Laemmli sample buffer and analyzed by sodium dodecyl sulphate (SDS)-polyacrylamide gel electrophoresis and Western blotting using Rap1 antibodies. As a control, Rap1 levels in whole cell lysates were determined.

PKAI = assay: Relative affinity for PKAI (cAMP = 1), in vitro; type: binding; conditions: relative to cAMP = 1
Epac = biological target: T1, Epac (Homo sapiens, UniProt O95398); assay: Relative affinity for Epac (cAMP = 1), in vitro; type: binding; conditions: relative to cAMP = 1
T1 sequence (O95398 1-923): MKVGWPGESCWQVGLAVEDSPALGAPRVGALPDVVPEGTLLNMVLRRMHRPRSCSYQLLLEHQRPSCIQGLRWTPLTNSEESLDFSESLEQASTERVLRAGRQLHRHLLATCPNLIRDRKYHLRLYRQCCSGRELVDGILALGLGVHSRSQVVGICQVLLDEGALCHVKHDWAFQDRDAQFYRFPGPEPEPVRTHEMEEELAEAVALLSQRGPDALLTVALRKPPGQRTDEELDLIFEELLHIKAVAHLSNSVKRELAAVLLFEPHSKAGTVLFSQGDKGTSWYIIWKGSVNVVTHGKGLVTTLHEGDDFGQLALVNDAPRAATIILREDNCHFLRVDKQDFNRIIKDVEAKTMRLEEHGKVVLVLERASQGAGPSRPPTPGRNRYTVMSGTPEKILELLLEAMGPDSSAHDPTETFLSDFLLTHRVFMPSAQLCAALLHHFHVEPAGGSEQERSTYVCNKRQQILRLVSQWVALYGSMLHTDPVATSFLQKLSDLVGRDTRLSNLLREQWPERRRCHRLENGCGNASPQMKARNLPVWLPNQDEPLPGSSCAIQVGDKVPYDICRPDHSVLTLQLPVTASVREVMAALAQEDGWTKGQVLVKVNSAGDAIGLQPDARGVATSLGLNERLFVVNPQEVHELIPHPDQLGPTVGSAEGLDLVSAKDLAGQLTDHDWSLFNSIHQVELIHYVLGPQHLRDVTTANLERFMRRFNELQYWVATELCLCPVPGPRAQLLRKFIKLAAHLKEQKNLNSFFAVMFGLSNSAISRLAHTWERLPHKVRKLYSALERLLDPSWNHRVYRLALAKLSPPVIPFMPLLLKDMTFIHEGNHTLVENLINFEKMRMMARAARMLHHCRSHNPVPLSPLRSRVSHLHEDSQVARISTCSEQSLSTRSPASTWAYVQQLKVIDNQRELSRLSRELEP

[1] = test system: type II holoenzyme of PKA (PKAII); assay: In vitro activation of cAMP-dependent protein kinase, type II holoenzyme (kemptide substrate); type: biochemical; conditions: compared to cAMP, FIG. 5
Protocol: Cyclic AMP dependent protein kinase I and II were reconstituted from isolated subunits and assayed for kinase activity using […] kemptide as substrate, as described previously (15).

[2] = test system: INS-1 insulin-secreting cells; conditions: cited from earlier work
human pancreatic β-cells = conditions: cited from earlier work

SMILES: CO[C@@H]1[C@@H]2OP(=O)(O)OC[C@H]2O[C@H]1n1c(Sc2ccc(Cl)cc2)nc2c(N)ncnc21 [Compound I-007, 8-(4-chloro-phenylthio)-2′-O-methyladenosine-3′,5′-cyclic monophosphate]
- Rap1 activation in time-course (Rap1; 60 μM, FIG. 7B): rapid and sustained Rap1 activation
- EC50 (Rap1; Homo sapiens, OVCAR-3, 0.25 h, 15 min, FIG. 7A): ~30 µM
- Relative affinity CAMP = 1 PKAI (PKAI): 0.009
- Relative affinity CAMP = 1 Epac (Epac): 4.6
- ability to activate the type II holoenzyme of PKA [1]: greatly impaired
- exocytosis [2]: induces exocytosis
- mobilization of Ca2+ from intracellular Ca2+ stores via Epac-mediated CICR [2]: can induce mobilization of Ca^2+
- exocytosis (human pancreatic β-cells): induces exocytosis
- mobilization of Ca2+ from intracellular Ca2+ stores via Epac-mediated CICR (human pancreatic β-cells): can induce mobilization of Ca^2+
